Assays:
[1] = tested on: sunflower cotyledons; experiment: Assessment of selection agents (GUS assay of transformed cotyledons and shoots); assay type: cell-based, Helianthus annuus L.; conditions: glyphosate 0.05->0.1->0.05 mM, paromomycin 25->50->25 mg/L, kanamycin 50 mg/L; for GUS Positive/Total cotyledons assayed: destructive GUS assays at different stages
Method: After the post-transformation delay, the transformed cotyledons were transferred through a series of selection cultures containing low-high-low concentrations of selective agent. The cotyledons were first placed in Selection media (see Table 1) containing 0.05 mM glyphosate for about 10 days. Plates were incubated at 23° C., low light, and 18/6 hour photoperiod. The cotyledons were then transferred to a second selection culture containing Selection media +0.1 mM glyphosate for about 2 additional weeks. Finally, the cotyledons were placed in a third selection culture containing Selection media +0.05 mM glyphosate for about 7 to 14 days. In addition to glyphosate, several other selection agents were tested (Table 4).

[2] = tested on: SFB193; experiment: Glyphosate spray in greenhouse, transgenic sunflower; assay type: in vivo
Method: (§1) Transgenic R1 sunflower plants (from strain HA300B), transformed with pWRG4750, were transformed and regenerated as described in Examples 5-9 and tested in greenhouse. About 5000 R2 seeds of two independent transformants, SFB193 and SFB216, were planted. […] […] The sunflower plants were assessed for resistance to glyphosate.
(§2) In addition, the glyphosate-treated transgenic plants were scored for normal head development.

[3] = tested on: HA300B (Control); experiment: Glyphosate spray in greenhouse, non-transgenic control; assay type: in vivo, sunflower; conditions: for Tolerance to glyphosate spray: greenhouse, about v6 to v10 leaf stage
Method: as §1, §2

[4] = tested on: SFB193 and SFB216; experiment: Glyphosate spray of plants from R2 seeds at V4 and V8 stages; assay type: in vivo, sunflower; conditions: 32 and 64 oz/acre; V4 and V8 stages of plant development
Method: (§3) Transgenic R1 sunflower plants (from strain HA300B), transformed with pWRG4750, were transformed and regenerated as described in Examples 5-9 and tested in greenhouse. About 5000 R2 seeds of two independent transformants, SFB193 and SFB216, were planted. Some plants were sprayed with Glyphosate at V-4 and V-8 leaf stages at 0 and 32 oz/acre level. For the other plants, glyphosate treatment rates, at V4 stage were 0-, 32-, or 64 oz./acre. The sunflower plants were assessed for resistance to glyphosate.

[5] = tested on: SFB216; experiment: Glyphosate spray in greenhouse, transgenic sunflower; assay type: in vivo
Method: as §3, with “For the other plants, glyphosate treatment rates, at V4 stage were 0-, 32-, or 64 oz./acre.” left out
as §2

Compound	GUS Positive/Total cotyledons assayed [1]	GUS Positive Shoots [1]	Normal Sunflower Heads After Treatment With Glyphosate ([2]; 32 oz./acre)	Normal Sunflower Heads After Treatment With Glyphosate ([2]; 64 oz./acre)	Normal Sunflower Heads After Treatment With Glyphosate ([2]; 96 oz./acre)	Normal Sunflower Heads After Treatment With Glyphosate ([2]; 128 oz./acre)	Normal Sunflower Heads After Treatment With Glyphosate ([3]; 32 oz./acre)	Tolerance to glyphosate spray ([3]; 32 oz./acre)	Normal Sunflower Heads After Treatment With Glyphosate ([3]; 64 oz./acre)	Tolerance to glyphosate spray ([3]; 64 oz./acre)	Normal Sunflower Heads After Treatment With Glyphosate ([3]; 96 oz./acre)	Normal Sunflower Heads After Treatment With Glyphosate ([3]; 128 oz./acre)	Vegetative tolerance to glyphosate spray [4]	Normal Sunflower Heads After Treatment With Glyphosate ([5]; 32 oz./acre)	Normal Sunflower Heads After Treatment With Glyphosate ([5]; 64 oz./acre)	Normal Sunflower Heads After Treatment With Glyphosate ([5]; 96 oz./acre)	Normal Sunflower Heads After Treatment With Glyphosate ([5]; 128 oz./acre)
O=C(O)CNCP(=O)(O)O [Glyphosate]	63/80	7	56%	79%	50%	25%	0%	No Tolerance	0%	No Tolerance	0%	0%	excellent vegetative tolerance	70%	32%	14%	0%
NC[C@H]1O[C@H](O[C@H]2[C@H](O)[C@@H](O[C@H]3O[C@H](CO)[C@@H](O)[C@H](N)[C@H]3O)[C@H](N)C[C@@H]2N)[C@H](O)[C@@H](O)[C@@H]1O [Kanamycin]	59/64	16	–	–	–	–	–	–	–	–	–	–	–	–	–	–	–
NC[C@@H]1O[C@H](O[C@H]2[C@@H](O)[C@H](O[C@@H]3[C@@H](O)[C@H](N)C[C@H](N)[C@H]3O[C@H]3O[C@H](CO)[C@@H](O)[C@H](O)[C@H]3N)O[C@@H]2CO)[C@H](N)[C@@H](O)[C@@H]1O [Paromomycin]	15/30	7	–	–	–	–	–	–	–	–	–	–	–	–	–	–	–
